Reference: patent US7081092B2, “Methods and apparatus for monitoring and quantifying the movement of fluid” (IMCOR Pharmaceutical Company, priority 1994, dated 2006)

Key:
Format in all cases: physicochemical
[1] = Solubility in water
Source text: (§1) In order to stabilize microbubbles in this fashion and provide desirable harmonic characteristics, the osmotic agent is preferably present in the gas phase of the bubble at a mole fraction concentration of greater than approximately 2%, and more preferably at about 5%, 10%, 25%, 50%, or 100%. The vapor inside the bubble is preferably near saturation under the conditions of examination, preferably at least about 50%, 75% or 100% of the saturation concentration. Thus, for microbubbles used for imaging in a human, the liquid phase of the vapor in the bubble must have a vapor pressure at 37° C. greater than 2% of the pressure inside the bubble (one atmosphere plus the blood pressure of the human being examined plus the pressure caused by the surface tension of the bubble, the LaPlace pressure). This total pressure for 3 micron bubbles could reach 1.5 bar and thus requires the liquid phase of the vapor in the bubble to have a vapor pressure at 37° C. greater than approximately 23 torr. The liquid phase of the vapor should also have a low solubility in water, preferably less than 1% wt./wt.
In such systems, suitable gases are ones that have a solubility/miscibility of their liquid forms with hexane, which is a model for the hydrophobic region of surfactants, of greater than 10% mole/mole at 37° C. […]

[2] = Solubility/miscibility of liquid form with hexane
Description: In such systems, suitable gases are ones that have a solubility/miscibility of their liquid forms with hexane, which is a model for the hydrophobic region of surfactants, of greater than 10% mole/mole at 37° C. For gases with a boiling point below 37° C., e.g. butane and perfluorobutane, this measurement must be carried out at elevated pressure. The adsorbing gas should be present in the bubble gas phase at a concentration of more than 2% by mole fraction of the gas mixture and preferably at about 5%, 10%, 25%, 50%, or 100%. The use of fluorinated surfactants with fluorinated gases is preferred. The liquid phase of the adsorbing gas should be relatively insoluble in water, less than 1% wt./wt. solubility/miscibility.

[3] = Vapor pressure at 37° C.
Source text: as §1

| Structure (SMILES) | Water solubility [1] | Solubility in hexane [2] | Vapor pressure [3] | Solubility in water and hexane versus criteria for adsorption in surfactant layer [2] |
| --- | --- | --- | --- | --- |
| FC(F)(F)C(F)(F)C(F)(F)C(F)(F)F [perfluorobutane] | less than 1 % wt./wt. | greater than 10 % mole/mole |  |  |
| FC(F)(F)C(F)(F)C(F)(F)C(F)(F)C(F)(F)C(F)(F)F [perfluorohexane] | less than 1 % wt./wt. |  | over 23 torr |  |
| FC(F)(F)C(F)(F)C(F)(F)C(F)(F)C(F)(F)F [perfluoropentane] |  |  |  | meet the criteria above |
